Test results from ChEMBL document CHEMBL3046247, “Anti-inflammatory and antioxidant activities of some extracts and pure natural products isolated from Rhus tripartitum (Ucria)” (Med Chem Res, 2010).
Values after ≈ are worked out from the molar mass of the structure shown.

Experiments:
Assay type in all cases: functional
[1] = test system: Rattus norvegicus; assay: Anti-inflammatory activity in fasted Rattus norvegicus Wistar (rat) assessed as inhibition of carrageenan-induced paw edema at 1 mg/kg, ip administered 1 hr prior to carrageenan challenge measured at 1 hr relative to control; details: route intraperitoneal
[2] = test system: Rattus norvegicus; assay: Anti-inflammatory activity in fasted Rattus norvegicus Wistar (rat) assessed as inhibition of carrageenan-induced paw edema at 1 mg/kg, ip administered 1 hr prior to carrageenan challenge measured at 5 hr relative to control; details: route intraperitoneal
[3] = test system: Rattus norvegicus; assay: Anti-inflammatory activity in fasted Rattus norvegicus Wistar (rat) assessed as inhibition of carrageenan-induced paw edema at 1 mg/kg, ip administered 1 hr prior to carrageenan challenge measured at 3 hr relative to control; details: route intraperitoneal
[4] = Antioxidant activity assessed as inhibition of ABTS radical formation at 0.06 mg/ml measured at 15 min relative to trolox
[5] = Antioxidant activity assessed as trolox equivalent of ABTS radical scavenging activity at 5 min
[6] = Antioxidant activity assessed as inhibition of ABTS radical formation at 0.5 mg/ml measured at 20 min relative to trolox
[7] = Antioxidant activity assessed as inhibition of ABTS radical formation at 0.12 mg/ml measured at 5 min relative to trolox
[8] = Antioxidant activity assessed as inhibition of ABTS radical formation at 1 mg/ml measured at 20 min relative to trolox
[9] = Antioxidant activity assessed as inhibition of ABTS radical formation at 0.06 mg/ml measured at 5 min relative to trolox
[10] = test system: Rattus norvegicus; assay: Anti-inflammatory activity in fasted Rattus norvegicus Wistar (rat) assessed as inhibition of carrageenan-induced paw edema at 0.5 mg/kg, ip administered 1 hr prior to carrageenan challenge measured at 3 hr relative to control; details: route intraperitoneal
[11] = Antioxidant activity assessed as trolox equivalent of ABTS radical scavenging activity at 10 min
[12] = Antioxidant activity assessed as inhibition of ABTS radical formation at 0.06 mg/ml measured at 20 min relative to trolox
[13] = Antioxidant activity assessed as inhibition of ABTS radical formation at 0.06 mg/ml measured at 10 min relative to trolox
[14] = test system: Rattus norvegicus; assay: Anti-inflammatory activity in fasted Rattus norvegicus Wistar (rat) assessed as inhibition of carrageenan-induced paw edema at 0.5 mg/kg, ip administered 1 hr prior to carrageenan challenge measured at 1 hr relative to control; details: route intraperitoneal
[15] = Antioxidant activity assessed as inhibition of ABTS radical formation at 1 mg/ml measured at 5 min relative to trolox
[16] = Antioxidant activity assessed as inhibition of ABTS radical formation at 0.5 mg/ml measured at 10 min relative to trolox
[17] = Antioxidant activity assessed as inhibition of ABTS radical formation at 0.25 mg/ml measured at 5 min relative to trolox
[18] = test system: Rattus norvegicus; assay: Anti-inflammatory activity in fasted Rattus norvegicus Wistar (rat) assessed as inhibition of carrageenan-induced paw edema at 0.1 mg/kg, ip administered 1 hr prior to carrageenan challenge measured at 1 hr relative to control; details: route intraperitoneal
[19] = test system: Rattus norvegicus; assay: Anti-inflammatory activity in fasted Rattus norvegicus Wistar (rat) assessed as inhibition of carrageenan-induced paw edema at 0.1 mg/kg, ip administered 1 hr prior to carrageenan challenge measured at 3 hr relative to control; details: route intraperitoneal
[20] = Antioxidant activity assessed as inhibition of ABTS radical formation at 0.25 mg/ml measured at 20 min relative to trolox
[21] = Antioxidant activity assessed as inhibition of ABTS radical formation at 0.03 mg/ml measured at 5 min relative to trolox
[22] = Antioxidant activity assessed as inhibition of ABTS radical formation at 0.5 mg/ml measured at 15 min relative to trolox
[23] = Antioxidant activity assessed as inhibition of ABTS radical formation at 0.12 mg/ml measured at 15 min relative to trolox
[24] = test system: Rattus norvegicus; assay: Anti-inflammatory activity in fasted Rattus norvegicus Wistar (rat) assessed as inhibition of carrageenan-induced paw edema at 0.5 mg/kg, ip administered 1 hr prior to carrageenan challenge measured at 5 hr relative to control; details: route intraperitoneal
[25] = Antioxidant activity assessed as inhibition of ABTS radical formation at 0.12 mg/ml measured at 20 min relative to trolox
[26] = Antioxidant activity assessed as inhibition of ABTS radical formation at 0.5 mg/ml measured at 5 min relative to trolox
[27] = Antioxidant activity assessed as inhibition of ABTS radical formation at 0.25 mg/ml measured at 10 min relative to trolox
[28] = Antioxidant activity assessed as inhibition of ABTS radical formation at 0.12 mg/ml measured at 10 min relative to trolox
[29] = Antioxidant activity assessed as inhibition of ABTS radical formation at 1 mg/ml measured at 15 min relative to trolox
[30] = Antioxidant activity assessed as inhibition of ABTS radical formation at 0.03 mg/ml measured at 20 min relative to trolox
[31] = Antioxidant activity assessed as inhibition of ABTS radical formation at 0.03 mg/ml measured at 15 min relative to trolox
[32] = Antioxidant activity assessed as trolox equivalent of ABTS radical scavenging activity at 15 min
[33] = Antioxidant activity assessed as trolox equivalent of ABTS radical scavenging activity at 20 min
[34] = Antioxidant activity assessed as inhibition of ABTS radical formation at 0.03 mg/ml measured at 10 min relative to trolox
[35] = Antioxidant activity assessed as inhibition of ABTS radical formation at 1 mg/ml measured at 10 min relative to trolox
[36] = Antioxidant activity assessed as inhibition of ABTS radical formation at 0.25 mg/ml measured at 15 min relative to trolox
[37] = test system: Rattus norvegicus; assay: Anti-inflammatory activity in fasted Rattus norvegicus Wistar (rat) assessed as inhibition of carrageenan-induced paw edema at 0.1 mg/kg, ip administered 1 hr prior to carrageenan challenge measured at 5 hr relative to control; details: route intraperitoneal
[38] = test system: Radical scavenging activity; assay: Antioxidant activity assessed as inhibition of DPPH radical formation measured at 30 min relative to trolox
[39] = test system: Radical scavenging activity; assay: Antioxidant activity assessed as inhibition of DPPH radical formation at 1 mg/ml measured at 30 min relative to trolox
[40] = test system: Radical scavenging activity; assay: Antioxidant activity assessed as inhibition of DPPH radical formation at 0.2 to 1 mg/ml measured at 30 min relative to trolox

| Compound | Imax [4] [%] | Activity [5] [mMequiv/mg] | Imax [6] [%] | Imax [7] [%] | Imax [8] [%] | Imax [9] [%] | Activity [11] [mMequiv/mg] | Imax [12] [%] | Imax [13] [%] | Imax [15] [%] | Imax [16] [%] | Imax [17] [%] | Imax [20] [%] | Imax [21] [%] | Imax [22] [%] | Imax [23] [%] | Imax [25] [%] | Imax [26] [%] | Imax [27] [%] | Imax [28] [%] | further results |
| --- | --- | --- | --- | --- | --- | --- | --- | --- | --- | --- | --- | --- | --- | --- | --- | --- | --- | --- | --- | --- | --- |
| C[C@@H]1C[C@H]2[C@@H]3CCC4=CC(=O)C=C[C@]4(C)[C@@]3(F)[C@@H](O)C[C@]2(C)[C@@]1(O)C(=O)CO [DEXAMETHASONE] | – | – | – | – | – | – | – | – | – | – | – | – | – | – | – | – | – | – | – | – | inhibition in vivo at 1 mg/kg [1]: 23%; inhibition in vivo at 1 mg/kg [2]: 40%; inhibition in vivo at 1 mg/kg [3]: 30% |
| O=C1C[C@H](c2ccc(O)cc2)Oc2cc(Oc3c(O)cc4c(c3O)C(=O)C[C@H](c3ccc(O)cc3)O4)cc(O)c21 [MASAZINOFLAVANONE] | 36.2 | 1.12 | 64.4 | 32.8 | 77.7 | 26.7 | 1.15 | 38.4 | 30.4 | 72 | 60.6 | 40.9 | 52.3 | 13.3 | 62.5 | 43.2 | 45.7 | 59.5 | 47.7 | 35.9 | inhibition in vivo at 0.5 mg/kg [10]: 25%; inhibition in vivo at 0.5 mg/kg [14]: 24%; inhibition in vivo at 1 mg/kg [1]: 31%; inhibition in vivo at 0.1 mg/kg [18]: 7%; inhibition in vivo at 0.1 mg/kg [19]: 8%; inhibition in vivo at 1 mg/kg [2]: 27%; inhibition in vivo at 0.5 mg/kg [24]: 14%; Imax [29]: 75.5%; Imax [30]: 18.3%; Imax [31]: 16.3%; Activity [32]: 1.18 mMequiv/mg; Activity [33]: 1.2 mMequiv/mg; inhibition in vivo at 1 mg/kg [3]: 31%; Imax [34]: 15.1%; Imax [35]: 73%; Imax [36]: 49.8%; inhibition in vivo at 0.1 mg/kg [37]: 10% |
| COc1cc([C@@H]2c3c(cc(OC)c(O)c3OC)C[C@H](CO)[C@H]2CO[C@@H]2O[C@H](CO)[C@@H](O)[C@H](O)[C@H]2O)cc(OC)c1O | 24.6 | 1.19 | 66.6 | 23.8 | 65.5 | 18 | 1.33 | 29.9 | 20.8 | 49.4 | 55.5 | 31.9 | 47.8 | 13.2 | 60.9 | 30.9 | 35.7 | 48.5 | 37.8 | 27.2 | IC50 [38]: 251.1 µg/mL (≈ 431 µM); Imax [39]: 64.4%; Imax [29]: 60.1%; Imax [30]: 23.3%; Imax [31]: 18.9%; Activity [32]: 1.45 mMequiv/mg; Activity [33]: 1.58 mMequiv/mg; Imax [34]: 15.3%; Imax [35]: 55.3%; Imax [36]: 41.6% |
| O=c1c(O)c(-c2cc(O)c(O)c(O)c2)oc2cc(O)cc(O)c12 [MYRICETIN] | 31.6 | 2.4 | 98.6 | 45.4 | 99.8 | 27.8 | 2.4 | 32.8 | 29.8 | 99.7 | 98.7 | 78.8 | 88.6 | 13.3 | 98.6 | 51.1 | 53.2 | 98.5 | 83.2 | 48.3 | IC50 [38]: 22 µg/mL (≈ 69.1 µM); Imax [40]: 75.1%; Imax [29]: 99.8%; Imax [30]: 16.6%; Imax [31]: 16%; Activity [32]: 2.38 mMequiv/mg; Activity [33]: 2.4 mMequiv/mg; Imax [34]: 14.5%; Imax [35]: 99.8%; Imax [36]: 86.1% |
